Values after ≈ are worked out from the molar mass of the structure shown. Read-outs that look alike come from different tables or passages of the source.
How the values were obtained:
Format in all cases: cell-based
[1] = test system: Streptococcus pyogenes 1079; test: MIC, microtiter broth dilution (NCCLS M100-S14), S. pyogenes 1079 (ermB)
Protocol: (§1) The assay described herein includes a panel of bacterial strains assembled to include a variety of target pathogenic species, including representatives of macrolide resistance mechanisms that have been characterized. In many cases, both the macrolide-susceptible parent strain and the macrolide-resistant strain derived from it are available to provide a more accurate assessment of the compound's ability to circumvent the resistance mechanism. The assay is performed in microtiter trays and interpreted according to Performance Standards for Antimicrobial Susceptibility Testing; 14th Informational Supplement (M100-S14), published by The National Committee for Clinical Laboratory Standards (NCCLS) guidelines; the MIC is used to compare strains. Compounds are initially dissolved in DMSO as 40 mg/ml stock solutions.

[2] = test system: Streptococcus pneumoniae 1016; test: MIC, microtiter broth dilution (NCCLS M100-S14), S. pneumoniae 1016 (susceptible)
Protocol: as §1

[3] = test system: Streptococcus pneumoniae 1095; settings: microtiter broth dilution
Protocol: as §1

[4] = test system: Streptococcus pneumoniae 1175; settings: microtiter broth dilution
Protocol: as §1

[5] = test system: Haemophilus influenzae 1218; test: MIC, microtiter broth dilution (NCCLS M100-S14), H. influenzae 1218 (susceptible)
Protocol: as §1

[6] = S. pneumoniae 1016 (susceptible)
[7] = H. influenzae 1218 (susceptible)

Structure (SMILES)	MIC S. pyogenes 1079 ([1]; Streptococcus pyogenes 1079) [µg/mL]	MIC S. pneumo. 1016 ([2]; Streptococcus pneumoniae 1016) [µg/mL]	MIC S. pneumo. 1095 ([3]; Streptococcus pneumoniae 1095) [µg/mL]	MIC S. pneumo. 1175 ([4]; Streptococcus pneumoniae 1175) [µg/mL]	MIC H. influenzae 1218 ([5]; Haemophilus influenzae 1218) [µg/mL]	MIC S. pyogenes 1079 ([1]; S. pyogenes 1079 (ermB)) [µg/mL]	MIC S. pneumo. 1016 [2, 6] [µg/mL]	MIC S. pneumo. 1095 ([3]; S. pneumoniae 1095 (ermB)) [µg/mL]	MIC S. pneumo. 1175 ([4]; S. pneumoniae 1175 (mefA)) [µg/mL]	MIC H. influenzae 1218 [5, 7] [µg/mL]
CCC1OC(=O)C(C)C(=O)C(C)C(OC2OC(C)CC(N(C)C)C2O)C(C)(OC)CC(C)C(=O)C(C)C2N(CC3CN(C(=O)c4cnc5ccccc5c4)C3)C(=O)OC12C.O=CO (stereo not drawn) [4.38]	>64.00	<0.06	2	<0.06	2					
CCC1OC(=O)C(C)C(=O)C(C)C(OC2OC(C)CC(N(C)C)C2O)C(C)(OC)CC(C)C(=O)C(C)C2N(CC3CCCN3Cc3ccno3)C(=O)OC12C (stereo not drawn) [10.01]						>64.00	<0.06	0.25 (≈ 0.322 µM)	0.5 (≈ 0.644 µM)	1 (≈ 1.29 µM)
CCC1OC(=O)C(C)C(=O)C(C)C(OC2OC(C)CC(N(C)C)C2O)C(C)(OC)CC(C)C(=O)C(C)C2N(CC3CCCN3Cc3cccc4cnccc34)C(=O)OC12C (stereo not drawn) [10.03]						64 (≈ 76.5 µM)	<0.06	0.25 (≈ 0.299 µM)	0.25 (≈ 0.299 µM)	8 (≈ 9.56 µM)
CCC1OC(=O)C(C)C(=O)C(C)C(OC2OC(C)CC(N(C)C)C2O)C(C)(OC)CC(C)C(=O)C(C)C2N(CC3CCCN3C(=O)c3ccc(C)[nH]c3=O)C(=O)OC12C (stereo not drawn) [10.48]						>64.00	<0.06	4 (≈ 4.81 µM)	0.5 (≈ 0.602 µM)	1 (≈ 1.2 µM)
CCC1OC(=O)C(C)C(=O)C(C)C(OC2OC(C)CC(N(C)C)C2O)C(C)(OC)CC(C)C(=O)C(C)C2N(C3CN(S(=O)(=O)c4cccc(-c5cc[nH]n5)c4)C3)C(=O)OC12C (stereo not drawn) [Example 3.36, 3-descladinosyl-11,12-dideoxy-6-O-methyl-3-oxo-12,11-(oxycarbonyl-(1-(3-(1H-pyrazol-3-yl)benzenesulfonyl)-azetidin-3-yl)-imino)-erythromycin A]	1 (≈ 1.14 µM)	<0.06	<0.06	<0.06	0.25 (≈ 0.286 µM)					
CCC1OC(=O)C(C)C(=O)C(C)C(OC2OC(C)CC(N(C)C)C2O)C(C)(OC)CC(C)C(=O)C(C)C2N(C3CN(C(C)c4ccncc4)C3)C(=O)OC12C (stereo not drawn) [Example 1.22, 1S-(pyridin-4-yl)ethyl]	>64.00	<0.06	1 (≈ 1.29 µM)	1 (≈ 1.29 µM)	16 (≈ 20.7 µM)					
CCC1OC(=O)C(C)(F)C(=O)C(C)C(OC2OC(C)CC(N(C)C)C2O)C(C)(OC)CC(C)C(=O)C(C)C2N(C3CN(C(C)c4ccnc5ncccc45)C3)C(=O)OC12C (stereo not drawn) [Example 1.32, 3-descladinosyl-11,12-dideoxy-2-fluoro-6-O-methyl-3-oxo-12,11-(oxycarbonyl-(1-(1R-(1,8-naphthyridin-4-yl)-ethyl)-azetidin-3-yl)-imino)-erythromycin A]	0.12 (≈ 0.143 µM)	<0.06	<0.06	0.25 (≈ 0.297 µM)	0.5 (≈ 0.594 µM)					
CCC1OC(=O)C(C)C(=O)C(C)C(OC2OC(C)CC(N(C)C)C2O)C(C)(OC)CC(C)C(=O)C(C)C2N(CC3CCN(Cc4ccno4)C3)C(=O)OC12C (stereo not drawn) [13.06]						>64.00	<0.06	>64.00	0.5 (≈ 0.644 µM)	2 (≈ 2.57 µM)
CC[C@H]1OC(=O)[C@H](C)C(=O)[C@H](C)[C@@H](O[C@@H]2O[C@H](C)C[C@H](N(C)C)[C@H]2O)[C@](C)(OC)C[C@@H](C)C(=O)[C@H](C)[C@H]2N(CC3(O)CN(C(=O)c4ccc(-n5cccn5)nc4)C3)C(=O)O[C@]12C.O=CO [7.31]						>64.00	<0.06	4	0.12	8
CCOc1cnc2ncccc2c1CN1CC(N2C(=O)OC3(C)C(CC)OC(=O)C(C)C(=O)C(C)C(OC4OC(C)CC(N(C)C)C4O)C(C)(OC)CC(C)C(=O)C(C)C23)C1 (stereo not drawn) [Example 1.108, 3-descladinosyl-11,12-dideoxy-6-O-methyl-3-oxo-12,11-(oxycarbonyl-(1-(3-ethoxy-1,8-naphthyridine-4-methyl)-azetidin-3-yl)-imino)-erythromycin A]	0.5 (≈ 0.585 µM)	<0.063	<0.063	0.125 (≈ 0.146 µM)	1 (≈ 1.17 µM)					
CCC1OC(=O)C(C)C(=O)C(C)C(OC2OC(C)CC(N(C)C)C2O)C(C)(OC)CC(C)C(=O)C(C)C2N(C3CN(C(COC)c4ccnc5ncccc45)C3)C(=O)OC12C (stereo not drawn) [Example 1.80, 3-descladinosyl-11,12-dideoxy-6-O-methyl-3-oxo-12,11-(oxycarbonyl-(1-(2-(methoxy)-1S-(1,8-napthyridin-4-yl)-ethyl)-azetidin-3-yl)-imino)-erythromycin A]	16 (≈ 18.7 µM)	<0.063	1 (≈ 1.17 µM)	0.125 (≈ 0.146 µM)	4 (≈ 4.68 µM)					
CCC1OC(=O)C(C)C(=O)C(C)C(OC2OC(C)CC(N(C)C)C2O)C(C)(OC)CC(C)C(=O)C(C)C2N(C3CN(Cc4cccc(-c5ccccn5)c4)C3)C(=O)OC12C (stereo not drawn) [Example 1.43, 3-(pyridin-2-yl)-benzyl]	16 (≈ 19.2 µM)	<0.06	<0.06	<0.06	2 (≈ 2.4 µM)					
CCC1OC(=O)C(C)C(=O)C(C)C(OC2OC(C)CC(N(C)C)C2O)C(C)(OC)CC(C)C(=O)C(C)C2N(CC3CCN(Cc4ccnc5ccccc45)CC3)C(=O)OC12C (stereo not drawn) [15.02]						>64.00	<0.06	>64.00	0.5 (≈ 0.587 µM)	32 (≈ 37.6 µM)
CCC1OC(=O)C(C)C(=O)C(C)C(OC2OC(C)CC(N(C)C)C2O)C(C)(OC)CC(C)C(=O)C(C)C2N(CC3CN(Cc4ccc5nccn5c4)C3)C(=O)OC12C (stereo not drawn) [4.25]	64 (≈ 78.8 µM)	<0.06	0.38 (≈ 0.468 µM)	0.31 (≈ 0.382 µM)	0.62 (≈ 0.764 µM)					
CCOc1ccc(S(=O)(=O)N2CC(N3C(=O)OC4(C)C(CC)OC(=O)C(C)C(=O)C(C)C(OC5OC(C)CC(N(C)C)C5O)C(C)(OC)CC(C)C(=O)C(C)C34)C2)c2cccnc12 (stereo not drawn) [Example 3.102, 3-descladinosyl-11,12-dideoxy-6-O-methyl-3-oxo-12,11-(oxycarbonyl-(1-(8-ethoxyquinoline-5-sulfonyl)-azetidin-3-yl)-imino)erythromycin A]	<0.063	<0.063	<0.063	<0.063	1 (≈ 1.11 µM)					
CCC1OC(=O)C(C)C(=O)C(C)C(OC2OC(C)CC(N(C)C)C2O)C(C)(OC)CC(C)C(=O)C(C)C2N(C3CN(Cc4ccc(-n5ccnc5)cc4)C3)C(=O)OC12C (stereo not drawn) [Example 1.57, 4-(imidazol-1-yl)benzyl]	64 (≈ 77.7 µM)		<0.06	<0.06	1 (≈ 1.21 µM)					
CCC1OC(=O)C(C)C(=O)C(C)C(OC2OC(C)CC(N(C)C)C2O)C(C)(OC)CC(C)C(=O)C(C)C2N(C3CN(Cc4cccc(-n5ccnn5)c4)C3)C(=O)OC12C (stereo not drawn) [Example 1.56, 3-([1,2,3]triazol-1-yl)benzyl]	>64.00		<0.06	<0.06	1 (≈ 1.21 µM)					
CCC1OC(=O)C(C)C(=O)C(C)C(OC2OC(C)CC(N(C)C)C2O)C(C)(OC)CC(C)C(=O)C(C)C2N(C3CN(S(=O)(=O)c4c(Cl)nc5sccn45)C3)C(=O)OC12C (stereo not drawn) [Example 3.97, 3-descladinosyl-11,12-dideoxy-6-O-methyl-3-oxo-12,11-(oxycarbonyl-(1-(6-chloroimidazo[2,1-b]thiazole-5-sulfonyl)-azetidin-3-yl)-imino)-erythromycin A]	1 (≈ 1.13 µM)		0.25 (≈ 0.281 µM)	<0.063	0.125 (≈ 0.141 µM)					
CCC1OC(=O)C(C)C(=O)C(C)C(OC2OC(C)CC(N(C)C)C2O)C(C)(OC)CC(C)C(=O)C(C)C2N(C3CN(Cc4c(F)cccc4F)C3)C(=O)OC12C (stereo not drawn) [Example 1.87, 3-descladinosyl-11,12-dideoxy-6-O-methyl-3-oxo-12,11-(oxycarbonyl-(1-(1,3-difluorobenzene-2-methyl)-azetidin-3-yl)-imino)erythromycin A]	8 (≈ 10.1 µM)	<0.063			0.5 (≈ 0.63 µM)					

Reference: patent US7462600B2, “Macrolides” (Pfizer Inc, priority 2004, dated 2008)
